Assay results as given in PubChem BioAssay (NCI).
Several values for one entry are separate records, joined by “and”; a condition that tells them apart may be missing. Identical values can stand only once.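 1) Cells in 96-well plates. 2) Compound, 48 h, 5 concentrations. 3) Linear interpolation between surrounding doses. 4) Unreached endpoint = highest concentration. At the GI50, growth is halved. The concentration for full growth arrest is given as TGI.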

Experiments:
Assay in all cases: growth of human tumour cells (NCI), 48 h
786-0 renal = test system: 786-0 renal
COLO 205 colon = test system: COLO 205 colon
HOP-62 NSCLC = test system: HOP-62 NSCLC
HT29 colon = test system: HT29 colon
KM12 colon = test system: KM12 colon
MDA-MB-231 breast = test system: MDA-MB-231 breast
MDA-MB-435 = test system: MDA-MB-435
MOLT-4 leukemia = test system: MOLT-4 leukemia
RXF 393 renal = test system: RXF 393 renal
SF-295 CNS = test system: SF-295 CNS
SF-539 CNS = test system: SF-539 CNS
SN12C renal = test system: SN12C renal
SK-MEL-2 melanoma = test system: SK-MEL-2 melanoma
UACC-257 melanoma = test system: UACC-257 melanoma

SMILES	TGI (786-0 renal)	TGI (COLO 205 colon)	TGI (HOP-62 NSCLC)	TGI (HT29 colon)	TGI (KM12 colon)	TGI (MDA-MB-231 breast)	TGI (MDA-MB-435)	TGI (MOLT-4 leukemia)	TGI (RXF 393 renal)	TGI (SF-295 CNS)	TGI (SF-539 CNS)	TGI (SN12C renal)	TGI (SK-MEL-2 melanoma)	TGI (UACC-257 melanoma)	GI50 (HOP-62 NSCLC)	GI50 (MDA-MB-435)	GI50 (SN12C renal)	GI50 (KM12 colon)	GI50 (MOLT-4 leukemia)	GI50 (SF-295 CNS)
CC(C)=CCNc1ncnc2c1ncn2CCC(=O)OC(C)(C)C	> 100 µM	> 100 µM	> 100 µM	> 100 µM	> 100 µM	> 100 µM	> 100 µM	> 100 µM	> 100 µM	> 100 µM	> 100 µM	> 100 µM	–	–	–	–	–	–	–	–
CCOC(=O)Cc1ccc(Nc2nc3cc(C(F)(F)F)ccc3nc2C(=O)OCC)cc1	> 100 µM	> 100 µM	> 100 µM	> 100 µM	> 100 µM	–	> 100 µM	> 100 µM	51.5 µM	> 100 µM	55.3 µM	> 100 µM	> 100 µM	> 100 µM	–	–	–	–	–	–
COC(=O)/C=C\c1ccc2c(c1)CC1(C2)Cc2ccc(/C=C/C(=O)OC)cc2C1 (stereo not drawn)	> 31.6 µM	> 31.6 µM	25.3 µM	> 31.6 µM	> 31.6 µM	> 31.6 µM	> 31.6 µM	> 31.6 µM	> 31.6 µM	> 31.6 µM	> 31.6 µM	> 31.6 µM	–	> 31.6 µM	–	–	–	–	–	–
CC(=O)O[C@H]1CC[C@H]2[C@@H]3CCc4cc(O)c(I)cc4[C@H]3CC[C@]12C	27.1 µM	33.6 µM	24 µM	33.2 µM	28.3 µM	12.3 µM	26.6 µM	61.6 µM	–	28.6 µM	29.7 µM	37.2 µM	37.3 µM	30 µM	11 µM	13.1 µM	18 µM	–	–	–
CC(=O)O[C@H]1C(=O)[C@@]2(C)C(C(OC(=O)c3ccccc3)[C@]3(O)CC(OC(=O)C(O)C(NC(=O)c4ccccc4)c4ccc(F)cc4)C(C)=C1C3(C)C)[C@]1(OC(C)=O)CO[C@@H]1C[C@@H]2O (stereo partly drawn)	> 10 µM	0.0755 µM	> 10 µM	> 3.4 µM	> 5.45 µM	0.608 µM	–	2.73 µM	0.0187 µM	1.42 µM	0.00307 µM	> 10 µM	3.27 µM	> 10 µM	–	–	–	–	–	–
CC1OC(OC2C(OC(=O)[C@]34CCC(C)(C)C[C@H]3C3=CC[C@@H]5[C@@]6(C)CC[C@H](OC7OC(C(=O)O)C(O)C(O)C7O)C(C)(C)[C@@H]6CC[C@@]5(C)[C@]3(C)CC4)OCC(O)C2O)C(O)C(O)C1OC1OCC(O)C(O)C1O (stereo partly drawn)	> 100 µM	31.2 µM and 30.6 µM	> 100 µM and 55.6 µM	> 100 µM and 30.1 µM	> 100 µM and 34 µM	60.4 µM and 35.4 µM	34.8 µM	> 100 µM	> 100 µM	> 100 µM and 58.6 µM	–	50.5 µM and 40.5 µM	> 100 µM and 63.7 µM	93.1 µM and > 100 µM	> 100 µM and 25.5 µM	–	–	37.9 µM and 17.1 µM	> 100 µM and 36.9 µM	53.5 µM and 24 µM
Cc1ccc(SCC(OCn2cnc3c(N)ncnc32)[C@H](C)F)cc1 (stereo partly drawn)	> 100 µM	> 100 µM	> 100 µM	> 100 µM	> 100 µM	> 100 µM	> 100 µM	> 100 µM	–	> 100 µM	> 100 µM	> 100 µM	> 100 µM	> 100 µM	–	–	–	–	–	–
CC(=O)OCc1nc(C#N)c(N)o1	> 100 µM	> 100 µM	> 100 µM	> 100 µM	> 100 µM	> 100 µM	> 100 µM	> 100 µM	> 100 µM	> 100 µM	–	> 100 µM	> 100 µM	> 100 µM	–	–	–	–	–	–
O=C(Sc1c(-c2ccccc2)c(=O)n(-c2ccccc2)c(=S)n1-c1ccccc1)c1ccc(Cl)cc1	> 100 µM	> 100 µM	> 100 µM	> 100 µM	> 100 µM	> 100 µM	> 100 µM	> 100 µM	> 100 µM	> 100 µM	> 100 µM	> 100 µM	–	> 100 µM	–	–	–	–	–	–
CCSC(=Nc1ccccc1)SC	> 100 µM	> 100 µM	> 100 µM	> 100 µM	> 100 µM	–	–	> 100 µM	> 100 µM	> 100 µM	> 100 µM	> 100 µM	> 100 µM	> 100 µM	–	–	–	–	–	–
COC(=O)CCc1ccc2c(c1)CCC2	> 100 µM	> 100 µM	> 100 µM	> 100 µM	> 100 µM	> 100 µM	> 100 µM	> 100 µM	–	> 100 µM	> 100 µM	> 100 µM	> 100 µM	> 100 µM	–	–	–	–	–	–
COc1ccccc1C1C2=C(COC2=O)OC(C)(C)Oc2cc3c(cc21)OCO3 (stereo not drawn)	> 68.8 µM	7.5 µM	> 65.4 µM	17.3 µM	11.4 µM	> 32.6 µM	–	> 100 µM	4.87 µM	> 45.6 µM	–	> 91.9 µM	> 73.7 µM	> 51.4 µM	–	–	–	–	–	–
CC1CCCOc2ccc(cc2)C=Nc2ccc(cc2)CCc2ccc(cc2)N=Cc2ccc(cc2)OCCC1 (stereo not drawn)	> 100 µM	> 100 µM	> 100 µM	> 100 µM	> 100 µM	> 100 µM	> 100 µM	> 100 µM	–	> 100 µM	> 100 µM	> 100 µM	> 100 µM	> 100 µM	–	–	–	–	–	–
O=C(O)C(Cc1ccc(O)cn1)NC(=O)C(F)(F)F (stereo not drawn)	> 100 µM	> 100 µM	> 100 µM	> 100 µM	> 100 µM	> 100 µM	> 100 µM	–	> 100 µM	> 100 µM	> 100 µM	> 100 µM	–	> 100 µM	–	–	–	–	–	–
O=C(O)C(Cc1cccs1)NC(=O)C(F)(F)F (stereo not drawn)	–	> 100 µM	> 100 µM	> 100 µM	> 100 µM	–	–	> 100 µM	> 100 µM	> 100 µM	> 100 µM	> 100 µM	> 100 µM	> 100 µM	–	–	–	–	–	–
CS(=O)(=O)c1nc(N)nc2nc[nH]c12	> 100 µM	> 100 µM	> 100 µM	> 100 µM	> 100 µM	–	–	> 100 µM	> 100 µM	> 100 µM	> 100 µM	> 100 µM	> 100 µM	> 100 µM	–	–	–	–	–	–
